Results as given in PubChem BioAssay AID2387 (Broad Institute, 2010).
Calls of active or inactive are those of the source.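 Rule for the calls: active = fitted EC50 no more than tenfold above the highest tested concentration; inconclusive = flat fit with 30 to 70% signal loss, or poor fit; inactive = the rest.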

The compounds below were run on Candida albicans CaCi-2 growth (no fluconazole), Alamar Blue (assay: intrinsic antifungal toxicity in Candida, azole-free – CaCi-2 strain, Alamar Blue fluorescence, counter-screen for fluconazole resistance reversal project, dose response (AID 2387)). Settings: C. albicans CaCi-2 (fluconazole-resistant clinical isolate) growth without fluconazole, 48 h.
For `O=[N+]([O-])c1ccc(O)c(Nc2ncnc3ccc(Br)cc23)c1`, the EC50 was > 16 µM (inactive). Work on `Oc1c(C(c2ccccc2Cl)N2CCCC2)ccc2cccnc12` (stereo not drawn) yielded an EC50 of 14.3 µM. With `C=CCN(CC=C)Cc1c(O)ccc2c(=O)c(-c3ccccc3)coc12` the EC50 was > 15 µM (inactive). With `Cc1ccc(C(=O)Nc2cccc(-c3cn4ccccc4n3)c2)cc1` the EC50 was > 16 µM (inactive). For `CCOc1ccc(/C=C/C2=CC(C)(C)NC(=S)N2)cc1`, the EC50 was > 15 µM (inactive). `O=C1NC(=O)/C(=C\c2ccc(Br)o2)S1` was tested, and the EC50 was > 15 µM (inactive). `O=[N+]([O-])c1ccc(O)c(/C=N/Nc2ccc(Cl)nn2)c1` was tested, and the EC50 was 9.85 µM. With `N#C/C(=C\c1ccc(N2CCOCC2)cc1)c1ccccc1` the EC50 was > 16 µM (inactive). In the case of `Cc1cc(C(=O)Nc2sc3c(c2C#N)CCCC3)no1`, the EC50 is reported as > 16 µM (inactive). `Cc1ccc(/C=C/C(=O)c2ccccc(=O)c2O)cc1C` showed an EC50 of 13 µM. For `Oc1c(C(c2ccc(Cl)cc2)N2CCCC2)cc(Cl)c2cccnc12` (stereo not drawn), the EC50 was 3.15 µM. In the case of `Nc1[nH]c(=O)ncc1F`, the EC50 is reported as > 16 µM (inactive). `CCCCCCCNC(=O)COc1ccc2c(c1)C(=O)CC(C)(C)O2` was tested, and the EC50 was > 16 µM (inactive). For `Cc1c(Cl)c([N+](=O)[O-])nn1Cc1ccc(C(=O)N/N=C\c2cc(Cl)ccc2O)o1`, the EC50 was > 16 µM (inactive). With `O=C(Cc1ccc(Cl)cc1)NNC(=S)NC(=O)c1cccs1` the EC50 was > 16 µM (inactive). `Cc1cc(C)n(-c2nc3ccccc3c(=O)n2OCC#N)n1` gave an EC50 of 11.2 µM. With `CCOC(=O)N1C(=O)C2(CCCCC2)N(c2ccccc2Cl)C1=S` the EC50 was 14.6 µM. For `CC(C)n1cc(/C=C/c2cc[n+](C)cc2)c2ccccc21`, the EC50 was > 15 µM (inactive). `COc1ccc(/C=C/c2cc(-c3ccc(C)cc3)o[n+]2C)cc1` was tested, and the EC50 was > 16 µM (inactive). In the case of `O=C(CCc1ccccc1)NNC(=S)NC(=O)c1ccccc1`, the EC50 is reported as > 15 µM (inactive). `O=C(N/N=C/c1ccccc1O)c1cccc(C(F)(F)F)c1` was tested, and the EC50 was > 15 µM (inactive). For `CCC(=O)NC(c1ccc(C)cc1)c1cc([N+](=O)[O-])c2cccnc2c1O` (stereo not drawn), the EC50 was > 15 µM (inactive). In the case of `O=Cc1ccc(O)c2ncccc12`, the EC50 is reported as 6.24 µM. `Nc1nonc1-n1nnc(C(=O)N/N=C/c2cc(Cl)ccc2O)c1CN1CCCCCC1` was tested, and the EC50 was > 15 µM (inactive). `Clc1ccc2c(c1)C(c1cccs1)=NNC(c1cccnc1)=N2` was tested, and the EC50 was > 15 µM (inactive). With `CCn1c(O)c(N=NC(=O)c2cccs2)c2ccccc21` the EC50 was > 15 µM (inactive). `Cc1ccc2nc(/C(C#N)=C\c3ccc(OC(=O)c4cccs4)cc3)[nH]c2c1` was tested, and the EC50 was > 16 µM (inactive). Work on `COc1ccc(-c2nnc(NC(=O)c3ccc(S(=O)(=O)N4CCCc5ccccc54)cc3)o2)cc1` yielded an EC50 of 13.3 µM.
